This passage reports Ki results from patent US20080221134A1, “8-ALKYNYLXANTHINES AND DERIVATIVES” (priority 2006, published 2008).

The term Ki denotes a measure of affinity in units of concentration, obtained from inhibition or displacement.

Test [1] has as its target T1, Rat A2A AR (Rattus norvegicus, UniProt P30543).
T1 construct: A2A adenosine receptors from rat striatum; from tissue; host or cells: rat striatum
Briefly: Radioligand binding assay 1, rat A2A adenosine receptor. Conditions: rat striatum, [3H]MSX-2. The protocol:
(§1) Rat brain preparations were used for A1- and A2A adenosine receptor (AR) and human recombinant cell samples for A1-, A2A- and A3 adenosine receptor radioligand binding studies. Affinity and selectivity was tested in displacement experiments with following radioligands: [^3H]CCPA for A1-adenosine receptors, [^3H]MSX-2 for A2A-receptors and [^3H]PSB-11 for A3-receptors. Results of these experiments are depicted in table 2b (human data) and table 2a (rat data). Radioligand binding test systems are e.g. generally described by Muller et al., Curr. Pharm. Des., 1996, 2, 501 and Weyler et al., ChemMedChem 2006, 1, 891 and references cited therein) These documents are incorporated herein by reference.

For test [2], the target named is T2, Rat A1 AR (Rattus norvegicus, UniProt P25099).
T2 construct: Rat brain preparations were used for A1- and A2A adenosine receptor (AR); from tissue; host or cells: rat cortex
T2 sequence (P25099 1-326): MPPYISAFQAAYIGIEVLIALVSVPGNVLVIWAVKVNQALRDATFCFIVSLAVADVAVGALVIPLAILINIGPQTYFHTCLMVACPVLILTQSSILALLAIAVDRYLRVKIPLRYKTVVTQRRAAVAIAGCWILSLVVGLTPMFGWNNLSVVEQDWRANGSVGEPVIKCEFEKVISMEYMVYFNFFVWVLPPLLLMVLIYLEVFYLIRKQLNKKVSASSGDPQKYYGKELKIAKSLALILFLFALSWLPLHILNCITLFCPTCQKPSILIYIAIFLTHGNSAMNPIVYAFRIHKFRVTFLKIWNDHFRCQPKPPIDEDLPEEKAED
Kind of test: Radioligand binding assay 1, rat A1 adenosine receptor. Particulars: rat cortex, [3H]CCPA. The protocol: as §1

The target in test [3] is T3, A2A-adenosine receptor human recombinant (Homo sapiens, UniProt P29274).
T3 construct: expressed in transfected cells
Briefly: Radioligand binding assay 1, human recombinant A2A adenosine receptor. The protocol: as §1

Where [4] appears, read: human recombinant, [3H]MSX-2, read-out: A2A-adenosine receptor human recombinant [3H] MSX-2 Ki.

Like-named read-outs stand apart in the source and are kept apart here. A value given as a limit tells only on which side of the number the result lay.

T3 sequence (P29274 whole entry): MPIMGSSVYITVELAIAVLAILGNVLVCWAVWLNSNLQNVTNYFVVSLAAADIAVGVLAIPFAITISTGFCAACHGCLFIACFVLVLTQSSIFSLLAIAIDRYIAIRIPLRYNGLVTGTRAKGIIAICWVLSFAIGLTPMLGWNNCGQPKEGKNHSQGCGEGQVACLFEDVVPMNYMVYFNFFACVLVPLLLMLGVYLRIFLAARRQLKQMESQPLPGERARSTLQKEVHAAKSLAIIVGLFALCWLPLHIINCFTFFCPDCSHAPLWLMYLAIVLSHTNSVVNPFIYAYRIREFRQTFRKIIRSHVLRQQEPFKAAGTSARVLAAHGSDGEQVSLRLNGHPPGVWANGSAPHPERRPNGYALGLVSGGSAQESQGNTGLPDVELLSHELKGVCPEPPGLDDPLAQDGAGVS
T1 sequence (P30543 whole entry): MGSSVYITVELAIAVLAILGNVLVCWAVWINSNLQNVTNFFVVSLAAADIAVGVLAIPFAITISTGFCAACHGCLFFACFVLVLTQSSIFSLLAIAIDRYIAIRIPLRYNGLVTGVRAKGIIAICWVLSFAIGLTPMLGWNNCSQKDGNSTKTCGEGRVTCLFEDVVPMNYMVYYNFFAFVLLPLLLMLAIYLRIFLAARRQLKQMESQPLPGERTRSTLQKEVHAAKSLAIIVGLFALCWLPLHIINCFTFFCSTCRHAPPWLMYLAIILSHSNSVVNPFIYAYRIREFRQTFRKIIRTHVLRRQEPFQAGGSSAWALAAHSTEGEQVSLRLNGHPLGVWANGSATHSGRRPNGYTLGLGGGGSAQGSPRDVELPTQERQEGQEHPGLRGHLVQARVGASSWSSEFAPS

Turning to `C#CCn1c(=O)c2c(nc(C#Cc3cccc(OCc4ccoc4)c3)n2C)n(C)c1=O` [drawing 479], the Ki is 66.4 ± 19 nM in test [1] and more than 1000 nM in test [2].
The corresponding values for `C#CCn1c(=O)[nH]c2nc(C#Cc3ccc(OC)c(OC)c3)n(C)c2c1=O` [drawing 483] are 15 ± 2 nM and not below 10000 nM.
In the case of `C#CCn1c(=O)c2c(nc(C#Cc3cccc(OC)c3)n2C)n(CCCO)c1=O` [drawing 484], the values for the Ki in test [1] and in test [2] were 11.8 ± 1.6 nM and 142 ± 8 nM, respectively.
As for `C#CCn1c(=O)c2c(nc(C#Cc3cccc(OC)c3)n2C)n(CC)c1=O` [drawing 485], the inhibitory constant (Ki) in test [1] is 49.9 ± 9.7 nM; in test [2] it was more than 10000 nM.
For `C#CCn1c(=O)c2c(nc(C#Cc3cccc(C)c3)n2C)n(CC)c1=O` [drawing 486], the Ki in test [1] is 76.3 ± 17.1 nM; in test [2] it was more than 10000 nM.
The corresponding values for `C#CCn1c(=O)c2c(nc(C#Cc3ccc(OC)c(OC)c3)n2C)n(CC)c1=O` [drawing 487] are 47.2 ± 7.3 nM and more than 3000 nM.
On the same counts, the results for `C#CCn1c(=O)c2c(nc(C#Cc3ccc(OC)c(OC)c3)n2C)n(CCN(C)C)c1=O` [drawing 489] are 54 ± 5 nM and 810 ± 145 nM.
The corresponding values for `C#CCn1c(=O)c2c(nc(C#Cc3cccc(OC)c3)n2C)n(CC=C)c1=O` [drawing 490] are 41.8 ± 4.3 nM and more than 1000 nM.
Take `C#CCn1c(=O)c2c(nc(C#Cc3cccc(OC)c3)n2C)n(CCO)c1=O` [drawing 491]: the Ki in test [1] is 103 ± 15 nM; in test [2] it was more than 1000 nM.
On the same counts, the results for `C#CCn1c(=O)c2c(nc(C#Cc3cccc(OC)c3)n2C)n(CC(O)CO)c1=O` (stereo not shown) [drawing 492] are 69.8 ± 17.1 nM and more than 1000 nM.
As for `C#CCn1c(=O)c2c(nc(C#Cc3ccc(OC)c(OC)c3)n2C)n(CC(O)CO)c1=O` (stereo not shown) [drawing 493], the Ki is 42.3 ± 5.7 nM in test [1] and not below 1000 nM in test [2].
The corresponding values for `C#CCn1c(=O)c2c(nc(C#Cc3ccc(OC)c(OC)c3)n2C)n(CCCOP(=O)(O)O)c1=O` [drawing 494] are 37 ± 11 nM and 136 ± 19 nM.
The corresponding values for `C#CCn1c(=O)c2c(nc(C#Cc3ccc(OCC)c(OCC)c3)n2C)n(CC)c1=O` [drawing 497] are 166 ± 50 nM and more than 1000 nM.
Turning to `C#CCn1c(=O)c2c(nc(C#Cc3ccc(OC)c(OC)c3)n2C)n(CCOC)c1=O` [drawing 498], the Ki is 45.9 ± 13.5 nM in test [1] and more than 1000 nM in test [2].
The corresponding values for `C#CCn1c(=O)c2c(nc(C#Cc3ccc(OC)c(OC)c3)n2C)n(CCO)c1=O` [drawing 499] are 45.5 ± 10.4 nM and more than 1000 nM.
On the same counts, the results for `C#CCn1c(=O)c2c(nc(C#Cc3ccc(OC)c(OC)c3)n2C)n(CC#N)c1=O` [drawing 500] are 40 ± 0.6 nM and more than 1000 nM.
For `C#CCn1c(=O)c2c(nc(C#Cc3ccc(OC)c(OC)c3)n2C)n(CCC#N)c1=O` [drawing 501], the Ki in test [1] is 76.4 ± 32.9 nM; in test [2], more than 1000 nM.
On the same counts, the results for `C#CCn1c(=O)c2c(nc(C#Cc3ccc(OC)c(OC)c3)n2C)n(CC(C)O)c1=O` (stereo not shown) [drawing 502] are 13.3 ± 1.4 nM and 189 ± 33 nM.
On to `C#CCn1c(=O)c2c(nc(C#Cc3ccc(OC)c(OC)c3)n2C)n(Cc2ccco2)c1=O` [drawing 503], for which the Ki in test [1] was 6.74 ± 1 nM; in test [2], 76.8 ± 22.9 nM.
The corresponding values for `C#CCn1c(=O)c2c(nc(C#Cc3ccc(OC)c(OC)c3)n2C)n(CCC2CO2)c1=O` (stereo not shown) [drawing 505] are 19.2 ± 1.4 nM and 64 ± 5.4 nM.
The corresponding values for `C#CCn1c(=O)c2c(nc(C#Cc3ccc(OC)c(OC)c3)n2C)n(CCCOC)c1=O` [drawing 506] are 44 ± 6.2 nM and more than 1000 nM.
As for `C#CCn1c(=O)c2c(nc(C#Cc3ccc(OC)c(OC)c3)n2C)n(CCCC#N)c1=O` [drawing 508], the Ki in test [1] was 22.9 ± 7.6 nM; in test [2], more than 1000 nM.
On the same counts, the results for `C#CCn1c(=O)c2c(nc(C#Cc3ccc(OC)c(OC)c3)n2C)n(Cc2ccoc2)c1=O` [drawing 509] are 5.16 ± 1.91 nM and more than 1000 nM.
Consider `C#CCn1c(=O)c2c(nc(C#Cc3ccsc3)n2C)n(CC)c1=O` [drawing 510], for which the Ki in test [1] is 108 ± 31 nM; in test [2], more than 1000 nM.
Regarding `C#CCn1c(=O)c2c(nc(C#Cc3cncn3C)n2C)n(CC)c1=O` [drawing 511], the values for the inhibitory constant (Ki) in test [1] and in test [2] were 119 ± 26 nM and 460 ± 61 nM, respectively.
On the same counts, the results for `C#CCn1c(=O)c2c(nc(C#Cc3ccc(OC)c(OC)c3)n2C)n(CCC)c1=O` [drawing 515] are 13.4 ± 6.5 nM and not below 1000 nM.
In the case of `C#CCn1c(=O)c2c(nc(C#Cc3ccc(OC)c(OC)c3)n2C)n(C(C)C)c1=O` [drawing 516], the Ki in test [1] was 118 ± 19 nM; in test [2], not below 1000 nM.
Regarding `C#CCn1c(=O)c2c(nc(C#Cc3ccc(OC)c(OC)c3)n2C)n(CC(C)C)c1=O` [drawing 517], the Ki in test [1] is 5.54 ± 1.3 nM; in test [2], not below 1000 nM.
Consider `C#CCn1c(=O)c2c(nc(C#Cc3ccc(OC)c(OC)c3)n2C)n(CCF)c1=O` [drawing 518], for which the Ki in test [1] is 9.99 ± 0.7 nM; in test [2] it was not below 1000 nM.
On the same counts, the results for `C#CCn1c(=O)c2c(nc(C#Cc3ccc(F)c(OC)c3)n2C)n(CC)c1=O` [drawing 519] are 43.1 ± 13.2 nM and more than 1000 nM.
With `C#CCn1c(=O)c2c(nc(C#Cc3ccc(OC)c(OC)c3)n2C)n(Cc2cccs2)c1=O` [drawing 520], the Ki in test [1] is 103 ± 21 nM; in test [2], more than 1000 nM.
For the compound `C#CCn1c(=O)c2c(nc(C#Cc3ccc(OC)c(OC)c3)n2C)n(CC2CC2)c1=O` [drawing 521], the Ki in test [1] was 10.2 ± 4.2 nM; in test [2], more than 1000 nM.
For the compound `C#CCn1c(=O)c2c(nc(C#Cc3ccc(OC)c(OC)c3)n2C)n(C(C)C(C)=O)c1=O` (stereo not shown) [drawing 524], the inhibition constant Ki is 16 ± 6 nM in test [1] and 157 ± 12 nM in test [2].
On the same counts, the results for `C#CCn1c(=O)c2c(nc(C#Cc3ccc(OC)c(OC)c3)n2C)n(CC(C)=O)c1=O` [drawing 525] are 18.5 ± 5 nM and more than 1000 nM.
On the same counts, the results for `C#CCn1c(=O)c2c(nc(C#Cc3ccc(OC)c(OC)c3)n2C)n(Cc2cnc[nH]2)c1=O` [drawing 527] are 28.8 ± 4.1 nM and more than 1000 nM.
Regarding `C#CCn1c(=O)c2c(nc(C#Cc3ccc(OC)c(OC)c3)n2C)n(CCCO)c1=O` [drawing 533], the Ki in test [1] stood at 30.1 ± 5.4 nM; in test [2], 337 ± 67 nM.
In the case of `C#CCn1c(=O)c2c(nc(C#Cc3cccc(C)c3)n2C)n(CCCO)c1=O` [drawing 534], the results for the Ki in test [1] and in test [2] were 47 ± 2 nM and 467 ± 6 nM, respectively.
For the compound `C#CCn1c(=O)c2c(nc(C#Cc3cccc(OC)c3)n2C)n(CCN(C)C)c1=O` [drawing 536], the Ki was 161 ± 35 nM in test [1] and more than 1000 nM in test [2].
The corresponding values for `C#CCn1c(=O)c2c(nc(C#Cc3ccc(OC)c(OC)c3)n2C)n(CC(O)CO)c1=O` (stereo not shown) [drawing 537] are 42.3 ± 5.7 nM and more than 1000 nM.
The corresponding values for `C#CCn1c(=O)c2c(nc(C#Cc3ccc(OC)c(OC)c3)n2C)n(CC(=O)OC)c1=O` [drawing 546] are 36.5 ± 6.1 nM and 286 ± 11 nM.
Take `C#CCn1c(=O)c2c(nc(C#Cc3ccc(Cl)c(Cl)c3)n2C)n(CC)c1=O` [drawing 550]: the Ki in test [1] was 132 ± 96 nM; in test [2] it was more than 1000 nM.
For the compound `C#CCn1c(=O)c2c(nc(C#Cc3ccccc3)n2C)n(C)c1=O` [drawing 552], in test [3] (no full inhibition curve due to limited water-solubility, read-out: A2A-adenosine receptor human recombinant [3H] MSX-2 Ki, calculated by extrapolation), the Ki was 314 ± 71 nM.
Take `C#CCn1c(=O)c2c(nc(C#Cc3ccc4c(c3)OCO4)n2C)n(C)c1=O` [drawing 561]: the inhibition constant Ki in test [3] (setting [4]) amounted to 52.3 ± 13.4 nM.
On the same count and under the same terms, under `C#CCn1c(=O)c2c(nc(C#Cc3ccc(OC)c(OC)c3)n2C)n(CCCOP(=O)(O)O)c1=O` [drawing 570] stands 50.7 ± 21.2 nM; under `C#CCn1c(=O)c2c(nc(C#Cc3cccc(OC)c3)n2C)n(CC=C)c1=O` [drawing 571], 35.6 ± 10.9 nM.
On the same count and under the same terms, under `C#CCn1c(=O)c2c(nc(C#Cc3cccc(OC)c3)n2C)n(CCO)c1=O` [drawing 572] stands 165 ± 14 nM; under `C#CCn1c(=O)c2c(nc(C#Cc3ccc(OC)c(OC)c3)n2C)n(CCC2CO2)c1=O` (stereo not shown) [drawing 580], 96.3 ± 3.1 nM.
With `C#CCn1c(=O)c2c(nc(C#Cc3ccc(OC)c(OC)c3)n2C)n(C(C)C(C)=O)c1=O` (stereo not shown) [drawing 591], the Ki in test [3] (setting [4]) was found to be 54 nM.
Consider `C#CCn1c(=O)c2c(nc(C#Cc3ccc(OC)c(OC)c3)n2C)n(CC(C)=O)c1=O` [drawing 592], for which the Ki in test [3] (setting [4]) was 273 nM.
In the case of `C#CCn1c(=O)c2c(nc(C#Cc3cccc(OC)c3)n2C)n(CCN(C)C)c1=O` [drawing 594], the Ki in test [3] (setting [4]) turned out to be 569 ± 10.7 nM.
Still for that read-out and setting: the figure for `C#CCn1c(=O)c2c(nc(C#Cc3cccc(OCCCO)c3)n2C)n(C)c1=O` [drawing 596] is 299 ± 72 nM; for `C#CCn1c(=O)c2c(nc(C#Cc3ccsc3)n2C)n(CC)c1=O` [drawing 599] it is 82.5 nM; for `C#CCn1c(=O)c2c(nc(C#Cc3cncn3C)n2C)n(CC)c1=O` [drawing 600] it is 82.1 ± 26 nM.
